Peptide text beside a SMILES is read from it. * marks the point of attachment. Cbz = O=C(OCc1ccccc1)*; CHN2 = [N-]=[N+]=C*; tBu = CC(C)(C)*
Test system: northern shrimp cathepsin L1
Test: Effects of inhibitors on northern shrimp cathepsin L1, residual activity with Z-Phe-Arg-MCA
Type: biochemical, northern shrimp (Pandalus eous)
Conditions: for Residual activity (%): enzyme 1 nM, Z-Phe-Arg-MCA 100 μM
Description: Enzymatic activity was assayed at 25° C. using intramolecularly quenched MCA (methyl coumarylamide) substrates in a buffer containing 100 mM sodium acetate, pH 6.0, 100 mM NaCl, 2 mM DTT, 2 mM EDTA and 0.01% Brij-35. The substrate solution was prepared in dimethyl sulfoxide at a concentration of 20 mM. Hydrolysis was initiated by adding the enzyme diluted with the same buffer. Enzymatic activity was determined by measuring fluorescence intensity of the released 7-amino-4-methylcoumarin (AMC) at an excitation wavelength of 380 nm and an emission wavelength of 460 nm.
Enzyme solution was pretreated with any one of inhibitors E64 (L-trans-epoxysuccinyl-leucyl-agmatine), Z-Phe-Phe-CHN2, Z-Phe-Tyr(t-Bu)-CHN2, leupeptin, antipain, PMSF (phenylmethylsulfonyl fluoride), and 1,10-phenanthroline in a buffer (containing 100 mM sodium acetate, 2 mM DTT, 2 mM EDTA, and 0.05% Triton X-100). Residual enzymatic activity was then measured with fluorescent substrate Z-Phe-Arg-MCA. The final concentrations of the enzymes and the substrate were 1 nM and 100 μM, respectively. The residual enzymatic activity was measured with the method described above.

SMILES | Inhibition of northern shrimp cathepsin L1 (in words) | Residual activity (%) (inhibitor 1 μM) | Residual activity (%) (inhibitor 10 μM) | Residual activity (%) (inhibitor 0.1 μM) | Residual activity (%) (inhibitor 1 mM) | Residual activity (%) (inhibitor 10 mM)
CC(C)(C)Oc1ccc(C[C@H](NC(=O)[C@H](Cc2ccccc2)NC(=O)OCc2ccccc2)C(=O)C=[N+]=[N-])cc1 [Z-Phe-Tyr(t-Bu)-CHN2] (Cbz-Phe-Tyr(tBu)-CHN2) | did not inhibit the present enzyme activity so much | 94 | 86 | – | – | –
CC(=O)N[C@@H](CC(C)C)C(=O)N[C@@H](CC(C)C)C(=O)N[C@H](C=O)CCCNC(=N)N [Leupeptin, leupeptin] | strongly inhibited | 0 | 0 | – | – | –
CC(C)C[C@H](NC(=O)[C@H]1O[C@@H]1C(=O)O)C(=O)NCCCCN=C(N)N (relative stereo) [E64, L-trans-epoxysuccinyl-leucyl-agmatine] | strongly inhibited | 0 | – | 0 | – | –
[N-]=[N+]=CC(=O)[C@H](Cc1ccccc1)NC(=O)[C@H](Cc1ccccc1)NC(=O)OCc1ccccc1 [Z-Phe-Phe-CHN2] (Cbz-Phe-Phe-CHN2) | did not inhibit the present enzyme activity so much | 78 | 55 | – | – | –
O=S(=O)(F)Cc1ccccc1 [PMSF, phenylmethylsulfonyl fluoride] | – | – | – | – | 100 | 100
c1cnc2c(c1)ccc1cccnc12 [1,10-Phenanthroline, 1,10-phenanthroline] | – | – | – | – | 99 | 98

— patent publication US7595183B2, “Cathepsins L-like cysteine protease derived from northern shrimp (Pandalus eous)” (Nichirei Corporation, priority 2002, dated 2009)
